A word on the IC50: it is the concentration needed to halve the response being measured. A high value points to weaker potency.

The results in this text go back to ChEMBL document CHEMBL4330058, “Discovery of novel anti-angiogenesis agents. Part 10: Multi-target inhibitors of VEGFR-2, Tie-2 and EphB4 incorporated with 1,2,3-triazol” (Eur J Med Chem, 2019).

Test [1] deals with Vascular endothelial growth factor receptor 2 (Homo sapiens, UniProt P35968). Nature of the test: Inhibition of VEGFR2 (unknown origin) after 1 hr by ADP-Glo reagent based luminescent assay. On the technique in general: In ADP-Glo the light output rises with the ADP produced.
Chain of Vascular endothelial growth factor receptor 2 (P35968 whole entry): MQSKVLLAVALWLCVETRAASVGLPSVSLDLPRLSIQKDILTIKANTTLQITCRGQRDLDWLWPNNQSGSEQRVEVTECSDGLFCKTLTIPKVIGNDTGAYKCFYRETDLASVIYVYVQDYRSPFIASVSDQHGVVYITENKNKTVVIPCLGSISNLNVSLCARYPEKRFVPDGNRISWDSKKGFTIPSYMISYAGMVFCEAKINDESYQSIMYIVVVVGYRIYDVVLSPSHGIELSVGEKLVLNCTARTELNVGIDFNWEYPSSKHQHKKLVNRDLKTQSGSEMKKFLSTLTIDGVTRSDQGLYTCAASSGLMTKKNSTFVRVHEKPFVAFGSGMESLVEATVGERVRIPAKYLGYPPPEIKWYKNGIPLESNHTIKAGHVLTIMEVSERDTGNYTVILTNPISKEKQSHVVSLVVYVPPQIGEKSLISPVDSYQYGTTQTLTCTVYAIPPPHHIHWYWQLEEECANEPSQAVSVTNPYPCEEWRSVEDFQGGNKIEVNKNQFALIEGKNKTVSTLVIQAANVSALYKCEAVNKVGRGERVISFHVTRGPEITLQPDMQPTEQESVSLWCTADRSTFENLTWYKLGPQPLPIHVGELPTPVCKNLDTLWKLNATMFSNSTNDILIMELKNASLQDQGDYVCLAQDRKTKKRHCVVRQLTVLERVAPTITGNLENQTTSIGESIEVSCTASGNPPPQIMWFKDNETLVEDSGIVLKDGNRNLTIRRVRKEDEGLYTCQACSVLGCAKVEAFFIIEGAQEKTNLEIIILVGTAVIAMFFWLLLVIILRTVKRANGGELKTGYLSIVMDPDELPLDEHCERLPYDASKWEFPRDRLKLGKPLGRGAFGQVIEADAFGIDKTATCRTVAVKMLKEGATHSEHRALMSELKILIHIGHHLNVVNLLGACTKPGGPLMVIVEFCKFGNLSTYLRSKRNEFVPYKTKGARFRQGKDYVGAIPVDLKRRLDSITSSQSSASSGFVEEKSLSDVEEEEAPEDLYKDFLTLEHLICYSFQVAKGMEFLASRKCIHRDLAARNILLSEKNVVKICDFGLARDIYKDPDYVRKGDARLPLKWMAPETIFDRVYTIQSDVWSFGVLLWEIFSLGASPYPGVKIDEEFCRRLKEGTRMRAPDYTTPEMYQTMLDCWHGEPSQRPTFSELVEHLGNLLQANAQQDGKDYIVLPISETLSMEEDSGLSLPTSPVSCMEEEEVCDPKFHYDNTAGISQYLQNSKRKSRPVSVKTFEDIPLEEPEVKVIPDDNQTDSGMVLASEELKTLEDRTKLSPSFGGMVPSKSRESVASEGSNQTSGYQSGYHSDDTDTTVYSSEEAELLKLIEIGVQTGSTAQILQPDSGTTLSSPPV
A further test concerns EA.hy 926. Nature of the test: Anti-angiogenic activity against human EAhy926 after 24 hrs by CCK-8 assay. To be noted: EA.hy 926, 24 h. It is filed as functional, cell-based. (In general: Tetrazolium dyes change colour on reduction, which living cells bring about.)
Another test concerns SMMC-7721. Nature of the test: Antiproliferative activity against human SMMC7721 cells.
The test system of another test is PANC-1. Briefly: Antiproliferative activity against human PANC1 cells.
The subject of a further test is A-431. Nature of the test: Antiproliferative activity against human A431 cells.
For the next test, the system named is MCF7. Nature of the test: Antiproliferative activity against human MCF7 cells.
Another test relates to HeLa. Briefly: Antiproliferative activity against human HeLa cells.
For a further test, the system named is LoVo. Briefly: Antiproliferative activity against human LoVo cells.
For the next test, the system named is A549. Briefly: Antiproliferative activity against human A549 cells.
The target in a further test is T1, Ephrin type-B receptor 4 (Homo sapiens, UniProt P54760).
T1 sequence (P54760 whole entry): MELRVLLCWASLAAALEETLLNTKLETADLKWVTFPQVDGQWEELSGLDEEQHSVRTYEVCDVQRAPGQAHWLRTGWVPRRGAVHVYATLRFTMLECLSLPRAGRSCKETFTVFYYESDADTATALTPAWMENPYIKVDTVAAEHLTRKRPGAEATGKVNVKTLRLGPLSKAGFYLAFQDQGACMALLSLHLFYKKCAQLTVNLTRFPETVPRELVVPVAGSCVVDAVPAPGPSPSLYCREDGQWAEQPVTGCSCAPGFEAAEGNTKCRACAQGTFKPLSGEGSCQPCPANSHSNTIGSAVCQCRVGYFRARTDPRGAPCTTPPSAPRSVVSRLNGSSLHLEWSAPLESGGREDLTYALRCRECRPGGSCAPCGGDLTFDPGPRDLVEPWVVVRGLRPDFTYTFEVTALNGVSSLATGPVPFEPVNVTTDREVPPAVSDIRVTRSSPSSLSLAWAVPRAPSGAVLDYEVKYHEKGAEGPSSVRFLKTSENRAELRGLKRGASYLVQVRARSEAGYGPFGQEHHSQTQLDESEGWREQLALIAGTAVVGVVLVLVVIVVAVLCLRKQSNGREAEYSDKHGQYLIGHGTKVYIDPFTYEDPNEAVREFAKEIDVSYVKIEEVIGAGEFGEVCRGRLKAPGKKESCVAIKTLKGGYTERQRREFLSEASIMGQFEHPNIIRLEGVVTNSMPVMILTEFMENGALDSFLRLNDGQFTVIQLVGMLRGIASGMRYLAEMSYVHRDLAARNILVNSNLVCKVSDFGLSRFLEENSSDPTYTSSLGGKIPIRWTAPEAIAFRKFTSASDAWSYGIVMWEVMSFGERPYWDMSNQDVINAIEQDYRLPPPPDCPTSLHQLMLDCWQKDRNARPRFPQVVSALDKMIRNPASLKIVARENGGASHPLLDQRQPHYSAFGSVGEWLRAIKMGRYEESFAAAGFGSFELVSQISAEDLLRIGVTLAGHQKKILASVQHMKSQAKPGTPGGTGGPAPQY
Briefly: Inhibition of EPHB4 (unknown origin) after 4 hrs by ADP-Glo reagent based luminescent assay.

The next test has as its target Angiopoietin-1 receptor (Homo sapiens, UniProt Q02763). Nature of the test: Inhibition of TIE2 (unknown origin) after 4 hrs by ADP-Glo reagent based luminescent assay.

Chain of Angiopoietin-1 receptor (Q02763 whole entry): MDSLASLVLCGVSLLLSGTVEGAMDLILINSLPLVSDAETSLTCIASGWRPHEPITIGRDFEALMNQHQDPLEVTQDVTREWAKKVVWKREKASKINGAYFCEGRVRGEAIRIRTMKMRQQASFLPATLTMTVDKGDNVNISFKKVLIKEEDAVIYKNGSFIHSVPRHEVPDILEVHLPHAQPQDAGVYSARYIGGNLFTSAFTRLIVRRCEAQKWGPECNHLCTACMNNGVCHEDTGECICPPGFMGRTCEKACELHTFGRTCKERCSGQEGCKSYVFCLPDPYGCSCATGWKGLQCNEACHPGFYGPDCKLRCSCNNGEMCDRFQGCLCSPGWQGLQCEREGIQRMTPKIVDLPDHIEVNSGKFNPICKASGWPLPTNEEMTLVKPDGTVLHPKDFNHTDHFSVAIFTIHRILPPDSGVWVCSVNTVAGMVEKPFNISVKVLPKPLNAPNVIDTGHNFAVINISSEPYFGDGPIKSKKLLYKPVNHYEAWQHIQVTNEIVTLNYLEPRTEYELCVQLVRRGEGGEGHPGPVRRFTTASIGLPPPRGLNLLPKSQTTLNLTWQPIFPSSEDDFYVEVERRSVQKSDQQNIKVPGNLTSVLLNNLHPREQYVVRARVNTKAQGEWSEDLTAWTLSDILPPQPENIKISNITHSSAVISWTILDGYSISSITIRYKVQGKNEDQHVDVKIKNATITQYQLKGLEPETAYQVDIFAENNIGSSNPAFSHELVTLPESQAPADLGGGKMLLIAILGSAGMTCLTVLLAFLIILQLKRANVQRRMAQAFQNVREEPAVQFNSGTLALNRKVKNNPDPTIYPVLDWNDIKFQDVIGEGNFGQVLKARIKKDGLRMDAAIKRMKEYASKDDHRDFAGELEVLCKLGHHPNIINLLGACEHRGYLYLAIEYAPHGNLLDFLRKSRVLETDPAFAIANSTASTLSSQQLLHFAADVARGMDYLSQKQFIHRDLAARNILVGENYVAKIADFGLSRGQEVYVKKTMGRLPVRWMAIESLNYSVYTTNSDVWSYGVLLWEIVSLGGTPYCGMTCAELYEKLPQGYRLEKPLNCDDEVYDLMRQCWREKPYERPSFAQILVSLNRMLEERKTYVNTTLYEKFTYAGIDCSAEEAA

On to `COc1ccc(-c2ccc(Cn3cc(-c4ccccc4F)nn3)cc2)cn1`, for which the figures for the IC50 (in test [1]; in the test with EA.hy 926) were over 1 µM and 708 µM, respectively.

For the compound `COc1ccc(-c2ccc(Cn3cc(-c4cccc(N)c4)nn3)cc2)cn1`, the IC50 in the test on SMMC-7721 was determined as 0.24 µM; in the test with PANC-1 it was 0.49 µM; in the test on A-431, 0.07 µM; in the test with MCF7, 0.35 µM; with HeLa, 0.29 µM; in the test on LoVo, 0.1 µM. The figures for the IC50 in the test on EA.hy 926 and in the test on A549 were 14.5 µM and 0.18 µM, respectively.

As to `FC(F)(F)c1cccc(-c2cn(Cc3ccc(-c4cccnc4)cc3)nn2)c1`, the IC50 was over 1 µM against Ephrin type-B receptor 4, over 1 µM in test [1] and 137 µM with EA.hy 926.

Take `Clc1cccc(-c2cn(Cc3ccc(-c4cccnc4)cc3)nn2)c1`: in the test on EA.hy 926, the IC50 was determined as 431 µM.

Regarding `FC(F)(F)c1ccc(-c2cn(Cc3ccc(-c4cccnc4)cc3)nn2)cc1`, the IC50 against Ephrin type-B receptor 4 was over 1 µM; against Angiopoietin-1 receptor, over 1 µM; with EA.hy 926 it was 170 µM.

The compound `COc1ccc(-c2ccc(Cn3cc(-c4ccc(C)cc4)nn3)cc2)cn1` had an IC50 in the test on EA.hy 926 of 678 µM.

In the case of `COc1ccc(-c2ccc(Cn3cc(-c4cccc(Cl)c4)nn3)cc2)cn1`, 440 µM corresponded to half-maximal inhibition in the test on EA.hy 926 (IC50).

On to `Fc1ccccc1-c1cn(Cc2ccc(-c3cccnc3)cc2)nn1`, for which the IC50 in the test with EA.hy 926 came out at 9.28 µM.

In the test on EA.hy 926, `Nc1cccc(-c2cn(Cc3ccc(-c4cccnc4)cc3)nn2)c1` had an IC50 of 24.3 µM.

In the case of `COc1ccc(-c2ccc(Cn3cc(-c4ccccc4)nn3)cc2)cn1`, the IC50 at Ephrin type-B receptor 4 was over 1 µM; against Angiopoietin-1 receptor, over 1 µM; with EA.hy 926 it was 110 µM.

Take `Cc1ccc(-c2cn(Cc3ccc(-c4cccnc4)cc3)nn2)cc1`: the values for the IC50 at Angiopoietin-1 receptor and in the test on EA.hy 926 were over 1 µM and 6.49 µM, respectively.

Turning to `COc1ccc(-c2ccc(Cn3cc(-c4ccc(C(F)(F)F)cc4)nn3)cc2)cn1`, the IC50 against Ephrin type-B receptor 4 is over 1 µM; in the test on EA.hy 926 it was 122 µM.

Regarding `c1ccc(-c2cn(Cc3ccc(-c4cccnc4)cc3)nn2)cc1`, in the test on EA.hy 926, half-maximal inhibition (IC50) required 12.1 µM.

As for `COc1ccc(-c2ccc(Cn3cc(-c4cccc(C)c4)nn3)cc2)cn1`, the IC50 against Angiopoietin-1 receptor was over 1 µM; in the test on EA.hy 926 it was 43.9 µM.

As to `Cc1cccc(-c2cn(Cc3ccc(-c4cccnc4)cc3)nn2)c1`, the IC50 against Ephrin type-B receptor 4 is over 1 µM; with EA.hy 926 it was 134 µM.

Consider `CNC(=O)c1cc(Oc2ccc(NC(=O)Nc3ccc(Cl)c(C(F)(F)F)c3)cc2)ccn1` [SORAFENIB], for which the IC50 with SMMC-7721 is 0.3 µM; in the test on PANC-1, 0.15 µM; in the test on A-431, 0.12 µM; in the test on MCF7, 0.09 µM; in the test on HeLa, 0.27 µM; in the test with LoVo, 0.25 µM. The IC50 with EA.hy 926 amounted to 11.7 µM; in the test with A549, 0.08 µM.
